From US20240228458A1, “PYRIMIDINE DERIVATIVE HAVING PROTEIN KINASE INHIBITORY ACTIVITY, AND THERAPEUTIC PHARMACEUTICAL COMPOSITION COMPRISING SAME” (THERAPEX CO., LTD., priority 2021, published 2024)

Columns and labels:
Type in all cases: cell-based
[1] = test system: Ba/F3 cells expressing EGFR-wt; assay: Growth inhibition (GI50) of Ba/F3 cells expressing EGFR-wt, Celltiter glo; details: Mus musculus, BaF3, 72 h
Procedure, shortened: (§1)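 We seed Ba/F3 transfectants at 100,000 cells/ml, dose them with ten 4-fold compound dilutions (2 mM top stock, 0.5% DMSO) after 4 h, and culture for 72 h at 37 °C. CellTiter-Glo then reports viable cell number, from which the GI50 is fitted.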

[2] = test system: Ba/F3 cells expressing L858R/T790M/C797S (EGFR-LTC); assay: Growth inhibition (GI50) of Ba/F3 cells expressing L858R/T790M/C797S (EGFR-LTC), Celltiter glo; details: Mus musculus, BaF3, 72 h
Procedure, shortened: as §1

parental Ba/F3 cell line = assay: Growth inhibition (GI50) of the parental Ba/F3 cell line (not introduced with EGFR variants), Celltiter glo; details: Mus musculus, BaF3, 72 h, parental Ba/F3 cells
Procedure, shortened: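 Viable cell count by CellTiter-Glo after 72 h at 37 °C gave GI50 values (μM, 50% growth inhibition). Cells lacking EGFR variants were seeded at 100,000 cells/ml and dosed 4 h later with 4-fold serial dilutions from a 2 mM stock, 0.5% DMSO.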

[3] = test system: Ba/F3 cells expressing del19/T790M/C797S (EGFR-DTC); assay: Growth inhibition (GI50) of Ba/F3 cells expressing del19/T790M/C797S (EGFR-DTC), Celltiter glo; details: Mus musculus, BaF3, 72 h
Procedure, shortened: as §1

SMILES	GI50 [1]	GI50 [2]	GI50 [3]	GI50 (parental Ba/F3 cell line)
CN1CCN(C2CCN(c3ccc4cc(Nc5ncc(Cl)c(Nc6cc(Cl)c(Cl)cc6NS(C)(=O)=O)n5)ccc4n3)CC2)CC1 [Example 102, N-(4,5-dichloro-2-((5-chloro-2-((2-(4-(4-methylpiperazin-1-yl)piperidin-1-yl)quinolin-6-yl)amino)pyrimidin-4-yl)amino)phenyl)methanesulfonamide]	500 to 2000 nM	100 to 500 nM	500 to 2000 nM	2000 to 10000 nM
COc1cc(N2CCC(N(C)CCN(C)C)CC2)c(C)cc1Nc1ncc(Cl)c(Nc2cc(Cl)c(Cl)cc2NS(C)(=O)=O)n1 [Example 104, N-(4,5-dichloro-2-((5-chloro-2-((4-(4-((2-(dimethylamino)ethyl)(methyl)amino)piperidin-1-yl)-2-methoxy-5-methylphenyl)amino)pyrimidin-4-yl)amino)phenyl)methanesulfonamide]	500 to 2000 nM	500 to 2000 nM	500 to 2000 nM	500 to 2000 nM
COc1cc(N(C)CCCN2CCN(C)CC2)c(C)cc1Nc1ncc(Cl)c(Nc2cc(Cl)c(Cl)cc2NS(C)(=O)=O)n1 [Example 105, N-(4,5-dichloro-2-((5-chloro-2-((2-methoxy-5-methyl-4-(methyl(3-(4-methylpiperazin-1-yl)propyl)amino)phenyl)amino)pyrimidin-4-yl)amino)phenyl)methanesulfonamide]	> 10000 nM	> 10000 nM	> 10000 nM	> 10000 nM
COc1cc(N2CCC(N3CCN(C)CC3)CC2)c(C)cc1Nc1ncc(Br)c(Nc2cc(C)ccc2NS(C)(=O)=O)n1 [Example 106, N-(2-((5-bromo-2-((2-methoxy-5-methyl-4-(4-(4-methylpiperazin-1-yl)piperidin-1-yl)phenyl)amino)pyrimidin-4-yl)amino)-4-methylphenyl)methanesulfonamide]	500 to 2000 nM	25 to 100 nM	1 to 25 nM	500 to 2000 nM
COc1cc(N2CCC(N3CCN(C)CC3)CC2)c(F)cc1Nc1ncc(Br)c(Nc2cc(C)ccc2NS(C)(=O)=O)n1 [Example 108]	500 to 2000 nM	100 to 500 nM	25 to 100 nM	2000 to 10000 nM
Cc1ccc(NS(C)(=O)=O)c(Nc2nc(Nc3cc(C)c(N4CCC(N5CCN(C)CC5)CC4)cc3Cl)ncc2Br)c1 [Example 109, N-(2-((5-bromo-2-((2-chloro-5-methyl-4-(4-(4-methylpiperazin-1-yl)piperidin-1-yl)phenyl)amino)pyrimidin-4-yl)amino)-4-methylphenyl)methanesulfonamide]	100 to 500 nM	1 to 25 nM	25 to 100 nM	500 to 2000 nM
CN1CCN(C2CCN(c3ncc(Nc4ncc(Cl)c(N(c5ccc6scnc6c5NS(C)(=O)=O)S(C)(=O)=O)n4)cc3F)CC2)CC1 [Example 113, N-(5-chloro-2-((5-fluoro-6-(4-(4-methylpiperazin-1-yl)piperidin-1-yl)pyridin-3-yl)amino)pyrimidin-4-yl)-N-(4-(methylsulfonamido)benzo[d]thiazol-5-yl)methanesulfonamide]	2000 to 10000 nM	500 to 2000 nM	500 to 2000 nM	2000 to 10000 nM
COc1cc(N2CCC(N3CCN(C)CC3)CC2)c(Cl)cc1Nc1ncc(Cl)c(N(c2ccc3scnc3c2NS(C)(=O)=O)S(C)(=O)=O)n1 [Example 114, N-(5-chloro-2-((5-chloro-2-methoxy-4-(4-(4-methylpiperazin-1-yl)piperidin-1-yl)phenyl)amino)pyrimidin-4-yl)-N-(4-(methylsulfonamido)benzo[d]thiazol-5-yl)methanesulfonamide]	500 to 2000 nM	100 to 500 nM	100 to 500 nM	500 to 2000 nM
COc1nc(N2CCC(N3CCN(C)CC3)CC2)c(C)cc1Nc1ncc(Cl)c(Nc2ccc3ncccc3c2NS(C)(=O)=O)n1 [Example 116, N-(6-((5-chloro-2-((2-methoxy-5-methyl-6-(4-(4-methylpiperazin-1-yl)piperidin-1-yl)pyridin-3-yl)amino)pyrimidin-4-yl)amino)quinolin-5-yl)methanesulfonamide]	500 to 2000 nM	100 to 500 nM	25 to 100 nM	2000 to 10000 nM
COc1nc(N2CCC(N3CCOCC3)CC2)ccc1Nc1ncc(Cl)c(Nc2ccc3ncccc3c2NS(C)(=O)=O)n1 [Example 117, N-(6-((5-chloro-2-((2-methoxy-6-(4-morpholinopiperidin-1-yl)pyridin-3-yl)amino)pyrimidin-4-yl)amino)quinolin-5-yl)methanesulfonamide]	500 to 2000 nM	500 to 2000 nM	500 to 2000 nM	2000 to 10000 nM
COc1cc(N2CCC(N3CCN(C)CC3)CC2)c(C)cc1Nc1ncc(Cl)c(N(C)c2ccccc2NS(C)(=O)=O)n1 [Example 120, N-(2-((5-chloro-2-((2-methoxy-5-methyl-4-(4-(4-methylpiperazin-1-yl)piperidin-1-yl)phenyl)amino)pyrimidin-4-yl)(methyl)amino)phenyl)methanesulfonamide]	2000 to 10000 nM	2000 to 10000 nM	2000 to 10000 nM	> 10000 nM
COc1nc(N2CCC(N3CCN(C)CC3)CC2)c(C)cc1Nc1ncc(Cl)c(N(C)c2ccccc2NS(C)(=O)=O)n1 [Example 121, N-(2-((5-chloro-2-((2-methoxy-5-methyl-6-(4-(4-methylpiperazin-1-yl)piperidin-1-yl)pyridin-3-yl)amino)pyrimidin-4-yl)(methyl)amino)phenyl)methanesulfonamide]	2000 to 10000 nM	2000 to 10000 nM	2000 to 10000 nM	> 10000 nM
COc1nc(N2CCC(N3CCN(C)CC3)CC2)c(C)cc1Nc1ncc(Cl)c(Nc2ccc3nccnc3c2P(C)(C)=O)n1 [Example 122, (6-((5-chloro-2-((2-methoxy-5-methyl-6-(4-(4-methylpiperazin-1-yl)piperidin-1-yl)pyridin-3-yl)amino)pyrimidin-4-yl)amino)quinoxalin-5-yl)dimethylphosphine oxide]	100 to 500 nM	25 to 100 nM	100 to 500 nM	500 to 2000 nM
CN1CCN(C2CCN(c3ncc(Nc4ncc(Cl)c(Nc5ccc6nccnc6c5P(C)(C)=O)n4)cc3F)CC2)CC1 [Example 124, (6-((5-chloro-2-((5-fluoro-6-(4-(4-methylpiperazin-1-yl)piperidin-1-yl)pyridin-3-yl)amino)pyrimidin-4-yl)amino)quinoxalin-5-yl)dimethylphosphine oxide]	100 to 500 nM	25 to 100 nM	25 to 100 nM	100 to 500 nM

The next lines start with results.

GI50 [1]	GI50 [2]	GI50 [3]	SMILES	GI50 (parental Ba/F3 cell line)
500 to 2000 nM	25 to 100 nM	100 to 500 nM	COc1cc(N2CCC(N3CCN(C)CC3)CC2)c(Cl)cc1Nc1ncc(Cl)c(Nc2cc(Cl)c(Cl)cc2NS(C)(=O)=O)n1 [Example 103]	2000 to 10000 nM
500 to 2000 nM	100 to 500 nM	25 to 100 nM	COc1cc(N2CCC(N3CCN(C)CC3)CC2)c(Cl)cc1Nc1ncc(Br)c(Nc2cc(C)ccc2NS(C)(=O)=O)n1 [Example 107, N-(2-((5-bromo-2-((5-chloro-2-methoxy-4-(4-(4-methylpiperazin-1-yl)piperidin-1-yl)phenyl)amino)pyrimidin-4-yl)amino)-4-methylphenyl)methanesulfonamide]	500 to 2000 nM
100 to 500 nM	25 to 100 nM	100 to 500 nM	COc1cc(N2CCC(N3CCN(C)CC3)CC2)c(C)cc1Nc1ncc(Cl)c(N(c2ccc3scnc3c2NS(C)(=O)=O)S(C)(=O)=O)n1 [Example 110, N-(5-chloro-2-((2-methoxy-5-methyl-4-(4-(4-methylpiperazin-1-yl)piperidin-1-yl)phenyl)amino)pyrimidin-4-yl)-N-(4-(methylsulfonamido)benzo[d]thiazol-5-yl)methanesulfonamide]	500 to 2000 nM
100 to 500 nM	25 to 100 nM	25 to 100 nM	CN1CCN(C2CCN(c3ccc(Nc4ncc(Cl)c(N(c5ccc6scnc6c5NS(C)(=O)=O)S(C)(=O)=O)n4)cc3F)CC2)CC1 [Example 112, N-(5-chloro-2-((3-fluoro-4-(4-(4-methylpiperazin-1-yl)piperidin-1-yl)phenyl)amino)pyrimidin-4-yl)-N-(4-(methylsulfonamido)benzo[d]thiazol-5-yl)methanesulfonamide]	100 to 500 nM
500 to 2000 nM	100 to 500 nM	100 to 500 nM	COc1cc(N2CCC(N3CCN(C)CC3)CC2)c(Cl)cc1Nc1ncc(Cl)c(Nc2ccc3ncccc3c2NS(C)(=O)=O)n1 [Example 118]	> 10000 nM
500 to 2000 nM	500 to 2000 nM	500 to 2000 nM	COc1cc(N2CCN(C)CC2)ccc1Nc1ncc(Cl)c(Nc2ccc3ncccc3c2NS(C)(=O)=O)n1 [Example 119, N-(6-((5-chloro-2-((2-methoxy-4-(4-methylpiperazin-1-yl)phenyl)amino)pyrimidin-4-yl)amino)quinolin-5-yl)methanesulfonamide]	2000 to 10000 nM
500 to 2000 nM	100 to 500 nM	100 to 500 nM	COc1nc(N2CCC(N3CCN(C)CC3)CC2)ccc1Nc1ncc(Cl)c(Nc2ccc3nccnc3c2P(C)(C)=O)n1 [Example 123, (6-((5-chloro-2-((2-methoxy-6-(4-(4-methylpiperazin-1-yl)piperidin-1-yl)pyridin-3-yl)amino)pyrimidin-4-yl)amino)quinoxalin-5-yl)dimethylphosphine oxide]	2000 to 10000 nM
